Source: PubChem BioAssay AID1963973 (Molecular Pharmacology Branch, DTP, NCI, 2024)
pIC50: −log10 of the molar value. “And” between values parts separate entries of the source, which are not always exact repeats. Equal values may be shown once. Each block holds one molecule with its values, some of them ahead of it.

System: 883617-216-R-J1-PDC tumor spheroids, viability
Assay: Anticancer human tumor 883617-216-R-J1-PDC patient-derived bladder carcinoma cell line growth inhibition [PI3K]
Details: spheroids with HUVEC and MSC; for viability, T/C: stronger effect = lower value
Excerpt: Combinatorial screen of targeted agents with the PI3K inhibitors inavolisib, alpelisib, duvelisib, and copanlisib in multi-cell type tumor spheroids
A high-throughput screen of multi-cell type tumor spheroids was designed to identify active combinations of targeted small molecules and PI3K pathway inhibitors. Complex spheroids include a stromal component modeled by human endothelial cells (HUVEC) and fibroblasts modeled by human mesenchymal stem cells (MSCs). The concentration ranges selected for each drug and investigational agent were based upon clinically achievable concentrations if the clinical Cmax of the agent was known.
Compounds. The drugs and investigational agents: inavolisib (NSC800729), alpelisib (NSC765974), duvelisib (NSC772469), copanlisib (NSC816437), ipatasertib (NSC767898), afuresertib (NSC778305), talazoparib (NSC767125), sapanisertib (NSC764658), selumetinib (NSC741078), tovorafenib (DAY101, NSC766906), vemurafenib (NSC761431), ravoxertinib (NSC781343), sotorasib (NSC818433), MRTX1133 (NSC 836407), abemaciclib (NSC 768073), palbociclib (NSC758247), venetoclax (NSC 766270), SY5609 (NSC837396), enzalutamide (NSC755605), and darolutamide (NSC825331), were obtained from the National Cancer Institute (NCI) Developmental Therapeutics Program Chemical Repository. The FDA-approved anticancer drug set is available from the NCI Developmental Therapeutics Program. […] The stock solutions were prepared in dimethyl sulfoxide (DMSO, Sigma-Aldrich, St. Louis, MO, cat. D2650) at 800-fold the tested concentration and stored at -70 degrees C prior to their use. All drugs and investigational agents were tested over a range starting from a high concentration at or near the clinical Cmax and decreasing in half-log increments. If the clinical Cmax for an agent had not been determined, the highest concentration tested was 10 microM.
Cell Culture. All cells were maintained in an incubator at 37 degrees C and 5% CO2 with 95% humidity. The PDC lines were cultured according to standard operating procedures established by the NCI PDMR (https://pdmr.cancer.gov/sops/default.htm). All PDCs were thawed and cultured in Matrigel-coated flasks prepared with a working solution of 1X Ham's F-12 nutrient mix, without supplementation (Invitrogen, Waltham, MA, cat. 11765054), 100 U/mL penicillin-streptomycin (Invitrogen, cat. 15140122), and 2.5% Matrigel (Corning Inc., Corning, NY, cat. 354248) for the first three passages. The 354836-022-R-J1-PDC, 475296-252-R-J1-PDC, and 997726-040-R-J2-PDC lines were cultured in 6A media, which includes advanced DMEM/F-12 (Thermo Fisher Scientific, cat. 12634028), 10 mM HEPES (Thermo Fisher Scientific, cat. 15630080), 1X GlutaMAX supplement (Thermo Fisher Scientific, cat. 35050061), 0.1 mg/mL primocin (InvivoGen, San Diego, CA, cat. ant-pm-2), 10% defined fetal bovine serum, heat inactivated (HyClone Laboratories Inc., Logan, UT, cat. SH30070.03HI), 50% L-WRN conditioned media (ATCC, cat. CRL-3276), 1.25 mM N-Acetyl-L-cysteine (Sigma-Aldrich, cat. A9165), 10 mM nicotinamide (Sigma-Aldrich, cat. N0636), 1X B-27 supplement (Thermo Fisher Scientific, cat. 17504044), 1X N-2 supplement (Thermo Fisher Scientific, cat. 17502048), and 10 microM Y-27632 dihydrochloride (Tocris Bioscience, Bristol, United Kingdom, cat. 1254). The 624824-186-R-J2-PDC line was cultured in 6C/Colon 1B media, which includes all 6A media components plus 50 ng/mL human EGF recombinant protein (Thermo Fisher Scientific, cat. PHG0311). […]

[1] = compound alone, run of 04/24/2023
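Further: spheroids exposed to agents for 7 days before the viability read.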

SMILES: C=CC(=O)N1CCN(c2nc(=O)n(-c3c(C)ccnc3C(C)C)c3nc(-c4c(O)cccc4F)c(F)cc23)C(C)C1 (centres undefined)
viability, T/C (compound 0.0316 µM): 61.8% [middle of 4 runs]
viability, T/C (compound 0.1 µM): 48% [middle of 4 runs]
viability, T/C (compound 0.316 µM): 51.2% [middle of 4 runs]
viability, T/C (compound 1 µM): 58.9% [middle of 4 runs]
viability, T/C (compound 3.16 µM): 74.7% [middle of 4 runs]
viability, T/C (compound 10 µM): 66.4% [middle of 4 runs]

SMILES: CC(C)n1nc(-c2ccc3oc(N)nc3c2)c2c(N)ncnc21
viability, T/C (compound 0.000316 µM): 95.2% [middle of 4 runs]
viability, T/C (compound 0.001 µM): 90.4% [middle of 4 runs]
viability, T/C (compound 0.00316 µM): 87.5% [middle of 4 runs]
viability, T/C (compound 0.01 µM): 73% [middle of 4 runs]
viability, T/C (compound 0.0316 µM): 47.2% [middle of 4 runs]
viability, T/C (compound 0.1 µM): 20.2% [middle of 4 runs]
IC50 (curve of compound): 27.6 nM [middle of 4 runs]

SMILES: CC(Nc1ncnc2nc[nH]c12)c1cc2cccc(Cl)c2c(=O)n1-c1ccccc1 (centres undefined)
viability, T/C (compound 0.0316 µM): 98.3% [middle of 8 runs]
viability, T/C (compound 0.1 µM): 95.9% [middle of 8 runs]
viability, T/C (compound 0.316 µM): 94.8% [middle of 8 runs]
viability, T/C (compound 1 µM): 85.6% [middle of 8 runs]
viability, T/C (compound 3.16 µM): 66.2% [middle of 8 runs]
viability, T/C (compound 10 µM): 50.7% [middle of 8 runs]

SMILES: CC1(C)CCC(CN2CCN(c3ccc(C(=O)NS(=O)(=O)c4ccc(NCC5CCOCC5)c([N+](=O)[O-])c4)c(Oc4cnc5[nH]ccc5c4)c3)CC2)=C(c2ccc(Cl)cc2)C1
viability, T/C (compound 0.0316 µM): 105% [middle of 4 runs]
viability, T/C (compound 1 µM): 94.3% [middle of 4 runs]
viability, T/C (compound 3.16 µM): 92.8% [middle of 4 runs]
pIC50 (curve of compound): < 5.00 and 5.27 and 5.25

SMILES: CC1(C)CCC(Nc2ncc(C(F)(F)F)c(-c3c[nH]c4c(P(C)(C)=O)c(C#N)ccc34)n2)CN1 (centres undefined)
viability, T/C (compound 0.0316 µM): 38% [middle of 4 runs]
viability, T/C (compound 0.1 µM): 31.7% [middle of 4 runs]
viability, T/C (compound 0.316 µM): 28.7% [middle of 4 runs]
viability, T/C (compound 1 µM): 30% [middle of 4 runs]
viability, T/C (compound 3.16 µM): 16.9% [middle of 4 runs]
viability, T/C (compound 10 µM): 0.37% [middle of 4 runs]
pIC50 (curve of compound): > 7.50

SMILES: CCCS(=O)(=O)Nc1ccc(F)c(C(=O)c2c[nH]c3ncc(-c4ccc(Cl)cc4)cc23)c1F
viability, T/C (compound 0.0316 µM): 99.5% [middle of 4 runs]
viability, T/C (compound 0.1 µM): 98.2% [middle of 4 runs]
viability, T/C (compound 0.316 µM): 97% [middle of 4 runs]
viability, T/C (compound 3.16 µM): 73.8% [middle of 4 runs]
viability, T/C (compound 10 µM): 9.39% [middle of 4 runs]
IC50 (curve of compound): 4.76 µM [middle of 4 runs]

SMILES: CCN1CCN(Cc2ccc(Nc3ncc(F)c(-c4cc(F)c5nc(C)n(C(C)C)c5c4)n3)nc2)CC1
viability, T/C (compound 0.00316 µM): 92% [middle of 4 runs]
viability, T/C (compound 0.01 µM): 78.9% [middle of 4 runs]
viability, T/C (compound 0.0316 µM): 75.5% [middle of 4 runs]
viability, T/C (compound 0.1 µM): 59% [middle of 4 runs]
viability, T/C (compound 0.316 µM): 56.6% [middle of 4 runs]
viability, T/C (compound 1 µM): 47.2% [middle of 4 runs]

SMILES: Cn1ncc(Cl)c1-c1cc(C(=O)NC(CN)Cc2cccc(F)c2)sc1Cl (centres undefined)
viability, T/C (compound 0.0316 µM): 98.2% [middle of 4 runs]
viability, T/C (compound 0.1 µM): 85% [middle of 4 runs]
viability, T/C (compound 0.316 µM): 63.8% [middle of 4 runs]
viability, T/C (compound 1 µM): 34.5% [middle of 4 runs]
viability, T/C (compound 3.16 µM): 13.8% [middle of 4 runs]
IC50 (curve of compound): 571 nM [middle of 4 runs]

SMILES: Cn1ncnc1[C@H]1c2n[nH]c(=O)c3cc(F)cc(c23)N[C@@H]1c1ccc(F)cc1
viability, T/C (compound 0.000316 µM): 92.5% [middle of 4 runs]
viability, T/C (compound 0.001 µM): 88.8% (2×) and 83.1% and 89.6%
viability, T/C (compound 0.00316 µM): 91.6% [middle of 4 runs]
viability, T/C (compound 0.01 µM): 84.4% [middle of 4 runs]
viability, T/C (compound 0.0316 µM): 75.7% [middle of 4 runs]
viability, T/C (compound 0.1 µM): 58.2% [middle of 4 runs]
pIC50 (curve of compound): < 7.00

Second part, led by results:

pIC50 (curve of compound): 7.01 and < 7.00 and 7.10
SMILES: CC(=O)c1c(C)c2cnc(Nc3ccc(N4CCNCC4)cn3)nc2n(C2CCCC2)c1=O
viability, T/C (compound 0.000316 µM): 109% [middle of 4 runs]
viability, T/C (compound 0.001 µM): 91.3% [middle of 4 runs]
viability, T/C (compound 0.00316 µM): 76.6% [middle of 4 runs]
viability, T/C (compound 0.01 µM): 87.7% [middle of 4 runs]
viability, T/C (compound 0.0316 µM): 71.2% [middle of 4 runs]
viability, T/C (compound 0.1 µM): 47.9% [middle of 4 runs]

IC50 (curve of compound): 591 nM [middle of 4 runs]
SMILES: CC(C)NCC(C(=O)N1CCN(c2ncnc3c2C(C)CC3O)CC1)c1ccc(Cl)cc1 (centres undefined)
viability, T/C (compound 0.0316 µM): 93.7% [middle of 4 runs]
viability, T/C (compound 0.1 µM): 77.3% [middle of 4 runs]
viability, T/C (compound 0.316 µM): 68.3% [middle of 4 runs]
viability, T/C (compound 1 µM): 40.5% [middle of 4 runs]
viability, T/C (compound 3.16 µM): 17.1% [middle of 4 runs]
viability, T/C (compound 10 µM): 7.67% [middle of 4 runs]

IC50 [1]: 72 nM [middle of 8 runs]
SMILES: CC(Nc1ccc2c(c1)OCCn1cc(N3C(=O)OCC3C(F)F)nc1-2)C(N)=O (centres undefined)
viability, T/C (compound 0.00316 µM): 96.5% [middle of 8 runs]
viability, T/C (compound 0.01 µM): 91.7% [middle of 8 runs]
viability, T/C (compound 0.0316 µM): 71.5% [middle of 8 runs]
viability, T/C (compound 0.1 µM): 40.2% [middle of 8 runs]
viability, T/C (compound 0.316 µM): 29.8% [middle of 8 runs]
viability, T/C (compound 1 µM): 18.9% [middle of 8 runs]

pIC50 (curve of compound): < 5.00
SMILES: CNC(=O)c1ccc(N2C(=S)N(c3ccc(C#N)c(C(F)(F)F)c3)C(=O)C2(C)C)cc1F
viability, T/C (compound 0.0316 µM): 94.7% [middle of 4 runs]
viability, T/C (compound 0.316 µM): 99.7% [middle of 4 runs]
viability, T/C (compound 1 µM): 98.9% [middle of 4 runs]
viability, T/C (compound 3.16 µM): 101% [middle of 4 runs]

IC50 (compound alone, run of 04/25/2023): 20.7 nM [middle of 8 runs]
SMILES: COc1c(OCCCN2CCOCC2)ccc2c3n(c(=NC(=O)c4cnc(N)nc4)nc12)CCN3
viability, T/C (compound 0.00316 µM): 93.8% [middle of 8 runs]
viability, T/C (compound 0.01 µM): 70.5% [middle of 8 runs]
viability, T/C (compound 0.0316 µM): 40% [middle of 8 runs]
viability, T/C (compound 0.1 µM): 15.4% [middle of 8 runs]
viability, T/C (compound 0.316 µM): 4.37% [middle of 7 runs]
viability, T/C (compound 1 µM): 3.24% [middle of 8 runs]

IC50 [1]: 316 nM [middle of 8 runs]
SMILES: Cc1nc(NC(=O)N2CCCC2C(N)=O)sc1-c1ccnc(C(C)(C)C(F)(F)F)c1 (centres undefined)
viability, T/C (compound 0.0316 µM): 92.1% [middle of 8 runs]
viability, T/C (compound 0.1 µM): 74.7% [middle of 8 runs]
viability, T/C (compound 0.316 µM): 49.1% [middle of 8 runs]
viability, T/C (compound 1 µM): 28.3% [middle of 8 runs]
viability, T/C (compound 3.16 µM): 12.5% [middle of 8 runs]
viability, T/C (compound 10 µM): 7.52% [middle of 8 runs]

IC50 (curve of compound): 52.5 nM [middle of 4 runs]
SMILES: Cn1cnc2c(F)c(Nc3ccc(Br)cc3Cl)c(C(=O)NOCCO)cc21
viability, T/C (compound 0.00949 µM): 73.6% [middle of 4 runs]
viability, T/C (compound 0.03 µM): 54.3% [middle of 4 runs]
viability, T/C (compound 0.0949 µM): 43.7% [middle of 4 runs]
viability, T/C (compound 0.3 µM): 32.2% [middle of 4 runs]
viability, T/C (compound 0.949 µM): 34.6% [middle of 4 runs]
viability, T/C (compound 3 µM): 20.2% [middle of 4 runs]

pIC50 (curve of compound): < 5.00 and 5.09
SMILES: Cn1nccc1Nc1nccc(-c2ccn(C(CO)c3ccc(Cl)c(F)c3)c(=O)c2)n1 (centres undefined)
viability, T/C (compound 0.0316 µM): 93.7% [middle of 4 runs]
viability, T/C (compound 0.1 µM): 86.5% [middle of 4 runs]
viability, T/C (compound 0.316 µM): 87.2% [middle of 4 runs]
viability, T/C (compound 1 µM): 79.5% [middle of 4 runs]
viability, T/C (compound 3.16 µM): 65.8% [middle of 4 runs]
viability, T/C (compound 10 µM): 58.5% [middle of 4 runs]
